Source: publication PMC3743770, “A Selective HDAC 1/2 Inhibitor Modulates Chromatin and Gene Expression in Brain and Alters Mouse Behavior in Two Mood-Related Tests” (PLoS ONE, 2013)
Where two headings read alike, the source gives them in different places. Blank lines part the entries; values can stand above or below the compound they belong to.

Key:
[1] = system: 80 common CNS targets including receptors, channels and transporters; test: CNS target binding assays (Cerep High-Throughput Profile P-3); details: 10 µM, duplicate; significance 50% inhibition of control binding
Excerpt: The specific ligand binding to the receptors is defined as the difference between the total binding and the nonspecific binding determined in the presence of an excess of unlabelled ligand. […] The experiment was accepted in accordance with Cerep’s validation Standard Operating Procedure.

[2] = Mouse brain pharmacokinetics; format: in vivo; details: for half-life: read-out: brain T1/2 (converted)
Protocol: Plasma, brain samples, and dose formulations, were analyzed as previously described using high performance liquid chromatography/mass spectrometry. Data acquisition and control system were created using Analyst 1.4 software (ABI Inc, Canada).

[3] = system: H4K12 acetylation in HEK293 cells; test: H4K12 acetylation western blot, constant exposure and washout; format: cell-based, human; details: for H4K12ac levels after washout: HEK293, 20 µM 24 hr, then 6 hr after media change; for H4K12ac levels, constant exposure: HEK293, 20 µM for 24 hr
Protocol: Frozen mouse brains (n = 6/treatment group) were rapidly dissected at 4°C to isolate frontal cortex (including PFC), ventral striatum (including NAc), and HIP for protein extraction. […] Solutions for protein extraction were supplemented with 5 mM sodium butyrate to suppress residual HDAC activity. […] Densitometric quantification was performed using Image J software (NIH) and statistical comparison to vehicle-treated controls by two-tailed t-test.
Protein was extracted by douncing in suspension buffer: 0.1 M NaCl, 0.01 M TrisCl (ph7.6), 0.001 M EDTA (pH 8.0), then immediately diluted with an equal volume of 2x SDS-gel loading buffer: 100 mM TrisCl (ph 6.8), 4% SDS, 20% glycerol, 200 mM DTT. […] Media was aspirated and cells collected for Western blotting using 40 μL buffers as detailed above for mouse brain. Solutions for protein extraction were supplemented with 5 mM sodium butyrate to suppress residual HDAC activity. Samples were denatured at 95°C for 5 min, passaged 3x through a 25 gauge needle and centrifuged at 10,000g for 10 min at room temperature and protein quantification performed using a BCA protein assay kit #23225 (Pierce). […] Chemiluminescent detection of immunoreactivity was performed using SuperSignal West Dura Substrate #34076 (Pierce) with subsequent densitometric quantification using Image J software (NIH) and statistical comparison to vehicle-treated controls by two-tailed t-test.

HDAC7 = biological target: T1, HDAC7 (Homo sapiens, UniProt Q8WUI4); test: HDAC inhibition assay, recombinant enzyme, Caliper EZ reader
T1 sequence (Q8WUI4 1-952): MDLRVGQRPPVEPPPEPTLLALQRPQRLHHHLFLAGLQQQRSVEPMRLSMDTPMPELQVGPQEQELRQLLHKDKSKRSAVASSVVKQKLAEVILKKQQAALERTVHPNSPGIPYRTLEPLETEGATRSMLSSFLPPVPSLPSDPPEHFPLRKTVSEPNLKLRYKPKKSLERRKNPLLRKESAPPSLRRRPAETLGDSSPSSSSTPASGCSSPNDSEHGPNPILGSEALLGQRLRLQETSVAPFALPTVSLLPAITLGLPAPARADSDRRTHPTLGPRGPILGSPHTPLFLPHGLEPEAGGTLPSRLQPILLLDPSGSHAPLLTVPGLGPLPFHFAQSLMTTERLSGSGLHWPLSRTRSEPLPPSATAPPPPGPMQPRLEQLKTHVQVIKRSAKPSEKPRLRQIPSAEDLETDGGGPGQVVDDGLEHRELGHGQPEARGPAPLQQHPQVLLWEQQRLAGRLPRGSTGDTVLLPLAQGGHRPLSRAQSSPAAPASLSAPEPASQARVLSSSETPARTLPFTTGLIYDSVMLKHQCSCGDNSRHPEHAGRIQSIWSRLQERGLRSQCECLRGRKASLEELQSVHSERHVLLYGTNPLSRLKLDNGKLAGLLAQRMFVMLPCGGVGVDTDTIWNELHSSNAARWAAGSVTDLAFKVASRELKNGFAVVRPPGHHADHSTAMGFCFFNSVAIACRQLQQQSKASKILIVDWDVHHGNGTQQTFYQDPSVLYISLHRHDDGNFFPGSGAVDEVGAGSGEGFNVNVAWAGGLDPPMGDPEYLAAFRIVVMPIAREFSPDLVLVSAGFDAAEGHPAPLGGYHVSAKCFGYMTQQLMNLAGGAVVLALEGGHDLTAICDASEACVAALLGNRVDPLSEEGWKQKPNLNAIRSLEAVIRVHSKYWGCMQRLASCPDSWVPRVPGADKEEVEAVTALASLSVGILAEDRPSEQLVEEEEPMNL

[4] = system: H4K12ac around TSS of Agxt2l1, Sgk1, Sult1a1, Tsc22d3; test: Chromatin immunoprecipitation (H4K12ac) of nucleus accumbens with qPCR; details: NAc; 0.5 kB downstream of each TSS; 45 mg/kg i.p. 10 days
C57BL/6 mice [5] = test: Forced-swim test (FST); format: in vivo, mouse
Protocol: (§1) Compounds were administered between 9 am and 1 pm for 7 days prior to the start of behavioral testing, and after completion of each daily session during behavioral testing. Testing was performed 18–24 hr after the previous treatment to avoid transient effects. Amphetamine-induced hyperlocomotion (AIH) was performed as previously described on days 7–9 of treatment with activity measured before and after amphetamine challenge (AccuScan Instruments, Inc.). Forced-swim test (FST) behavior was performed as previously described on day 10 of treatment and total time spent immobile during a 6 min session was scored automatically (Ethovision; Noldus). Treatment effects were analyzed by one way analysis of variance (ANOVA) with post hoc analysis using Least Squared Differences test (SPSS v18.0 IBM).

mice = test: Tolerability of chronic treatment; format: in vivo; details: Cpd-60 45 mg/kg i.p., SAHA 25 mg/kg i.p.
[6] = Positron emission tomography of carbon-11 labeled Cpd-60; format: in vivo, baboon (Papio anubis); details: intravenous, preliminary unpublished data
Excerpt: Male 11 wk old C57BL/6 mice were utilized for pharmacokinetic, behavioral and biochemical analyses. One female baboon (Papio Anubis) was used to determine brain uptake and pharmacokinetics of Cpd-60. […] Non-human primate housing conditions and feeding regimens were coordinated by the professional investigative staff at the Brookhaven Laboratory Animal Facility which included social housing in cages appropriate for the physical and behavioral health of the individual animal. Animals were fed a 3x per day with additional nutritional supplements provided as prescribed by the attending veterinarian. Environmental enrichment included audio, video and tactile elements (e.g. listening to the radio, watching television, playing with toys and human interaction) and were provided on a daily basis to promote psychological well-being. All procedures were performed without compromising animal welfare and all efforts were made to minimize suffering including adequate use of anesthesia (ketamine, isoflurane) in the baboon imaging experiment. The baboon was not sacrificed following the study and further effort was taken to minimize suffering by allowing an interval of at least one month between subsequent imaging studies in the same animal.
C57BL/6 male mice were purchased at 10 weeks of age from The Jackson Laboratory and Taconic Farms. […]

[7] = system: transcripts in PFC, NAc and HIP; test: Whole genome transcript profiling of brain regions (microarray); format: in vivo, mouse; details: for overlap with the 121 transcripts modulated by lithium: Gene Set Enrichment Analysis; for transcripts altered across the three regions: PFC, NAc, HIP compiled, ≥[…] vs vehicle; for transcripts up- or down-regulated, summed across the three brain regions: Tukey's HSD p<0.05 vs vehicle
Protocol: Frozen mouse brains (n = 6/treatment group) were rapidly dissected at 4°C to isolate medial prefrontal cortex (PFC), nucleus accumbens (NAc) and hippocampus (HIP) for mRNA extraction. Whole genome transcript profiling was performed using the Illumina MouseWG-6 Expression BeadChip with subsequent validation by quantitative real-time PCR (qPCR) and is available online at the NCBI Gene Expression Omnibus repository (GSE47452).
Frozen mouse brains (n = 6/ treatment group) were rapidly dissected at 4°C, isolating medial prefrontal cortex, nucleus accumbens and hippocampus. […] For microarray experiments on Illumina MouseWG-6 BeadChips, RNA samples were pooled from two biological replicates such that the total number of samples was 27 (3 treatment groups x 3 brain regions x 3 RNA pools representing two mice per pool). All microarray analysis and gene set analysis (GSA) was performed using GeneSpring software (v.11.5.1) with raw signals adjusted using quantile normalization and baseline transformation with the median signal in all samples set to zero. Data were included in subsequent analyses if the normalized signal, thresholded at 0.8, was ‘present’ for 3 of 3 replicates for like treatment and tissue groups. […] Primer sequences for qPCR validation were designed using NCBI PRIMER-BLAST (Table S2).

HDAC8 = biological target: T2, HDAC8 (Homo sapiens, UniProt Q9BY41); test: HDAC inhibition assay, recombinant enzyme, Caliper EZ reader
T2 sequence (Q9BY41 1-377): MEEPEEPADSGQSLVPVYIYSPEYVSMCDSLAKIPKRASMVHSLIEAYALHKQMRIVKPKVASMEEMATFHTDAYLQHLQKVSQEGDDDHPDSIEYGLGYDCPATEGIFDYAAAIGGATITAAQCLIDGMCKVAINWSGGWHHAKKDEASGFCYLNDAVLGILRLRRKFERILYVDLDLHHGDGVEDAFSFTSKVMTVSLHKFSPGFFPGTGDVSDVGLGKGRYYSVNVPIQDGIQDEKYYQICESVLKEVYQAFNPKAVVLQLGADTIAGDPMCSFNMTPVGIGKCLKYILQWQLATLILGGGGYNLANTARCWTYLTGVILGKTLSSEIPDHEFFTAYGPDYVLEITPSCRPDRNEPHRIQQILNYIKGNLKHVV

[8] = system: histone H4K12 acetylation in cultured primary mouse neuronal cells; test: Mouse primary neuronal histone acetylation assay; details: Neuron, 24 h, read-out: EC50 for H4K12 acetylation
C57BL/6 mice [9] = test: Amphetamine-induced hyperlocomotion (AIH); format: in vivo, mouse; details: chronic i.p.; Cpd-60 45 mg/kg, SAHA 25 mg/kg; vs vehicle; amphetamine 3.5 mg/kg
Protocol: as §1

HDAC4 = HDAC4 (Homo sapiens, UniProt P56524); test: biochemical
HDAC4, sequence (P56524 whole entry): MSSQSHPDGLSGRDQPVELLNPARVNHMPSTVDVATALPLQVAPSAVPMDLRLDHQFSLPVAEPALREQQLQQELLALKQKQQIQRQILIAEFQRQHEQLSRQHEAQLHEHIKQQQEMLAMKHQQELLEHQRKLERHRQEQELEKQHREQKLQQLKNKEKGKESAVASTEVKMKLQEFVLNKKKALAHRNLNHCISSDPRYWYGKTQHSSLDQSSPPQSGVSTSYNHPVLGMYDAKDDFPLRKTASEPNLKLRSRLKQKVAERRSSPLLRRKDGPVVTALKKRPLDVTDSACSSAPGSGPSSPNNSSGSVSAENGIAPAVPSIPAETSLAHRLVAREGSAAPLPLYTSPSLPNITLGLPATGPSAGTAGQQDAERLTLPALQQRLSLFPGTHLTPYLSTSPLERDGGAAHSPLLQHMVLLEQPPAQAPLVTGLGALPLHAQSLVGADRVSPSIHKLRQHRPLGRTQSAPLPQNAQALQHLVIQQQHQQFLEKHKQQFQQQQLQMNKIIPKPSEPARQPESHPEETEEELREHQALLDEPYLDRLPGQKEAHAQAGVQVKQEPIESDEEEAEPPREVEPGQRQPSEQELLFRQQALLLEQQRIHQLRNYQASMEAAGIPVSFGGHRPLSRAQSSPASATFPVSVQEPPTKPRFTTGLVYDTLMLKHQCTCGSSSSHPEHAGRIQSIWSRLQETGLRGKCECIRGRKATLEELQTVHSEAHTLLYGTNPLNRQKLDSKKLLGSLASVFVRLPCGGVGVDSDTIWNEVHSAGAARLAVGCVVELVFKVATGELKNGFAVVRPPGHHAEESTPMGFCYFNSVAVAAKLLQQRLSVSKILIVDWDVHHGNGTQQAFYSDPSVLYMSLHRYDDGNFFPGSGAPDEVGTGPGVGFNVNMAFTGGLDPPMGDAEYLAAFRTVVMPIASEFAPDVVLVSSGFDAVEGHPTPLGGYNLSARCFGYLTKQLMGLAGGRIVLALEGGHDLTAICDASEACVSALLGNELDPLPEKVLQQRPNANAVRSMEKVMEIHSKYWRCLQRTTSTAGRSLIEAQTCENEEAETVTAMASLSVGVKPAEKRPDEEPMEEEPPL

HDAC5 = HDAC5 (Homo sapiens, UniProt Q9UQL6); test: HDAC inhibition assay, recombinant enzyme, Caliper EZ reader
HDAC5, sequence (Q9UQL6 whole entry): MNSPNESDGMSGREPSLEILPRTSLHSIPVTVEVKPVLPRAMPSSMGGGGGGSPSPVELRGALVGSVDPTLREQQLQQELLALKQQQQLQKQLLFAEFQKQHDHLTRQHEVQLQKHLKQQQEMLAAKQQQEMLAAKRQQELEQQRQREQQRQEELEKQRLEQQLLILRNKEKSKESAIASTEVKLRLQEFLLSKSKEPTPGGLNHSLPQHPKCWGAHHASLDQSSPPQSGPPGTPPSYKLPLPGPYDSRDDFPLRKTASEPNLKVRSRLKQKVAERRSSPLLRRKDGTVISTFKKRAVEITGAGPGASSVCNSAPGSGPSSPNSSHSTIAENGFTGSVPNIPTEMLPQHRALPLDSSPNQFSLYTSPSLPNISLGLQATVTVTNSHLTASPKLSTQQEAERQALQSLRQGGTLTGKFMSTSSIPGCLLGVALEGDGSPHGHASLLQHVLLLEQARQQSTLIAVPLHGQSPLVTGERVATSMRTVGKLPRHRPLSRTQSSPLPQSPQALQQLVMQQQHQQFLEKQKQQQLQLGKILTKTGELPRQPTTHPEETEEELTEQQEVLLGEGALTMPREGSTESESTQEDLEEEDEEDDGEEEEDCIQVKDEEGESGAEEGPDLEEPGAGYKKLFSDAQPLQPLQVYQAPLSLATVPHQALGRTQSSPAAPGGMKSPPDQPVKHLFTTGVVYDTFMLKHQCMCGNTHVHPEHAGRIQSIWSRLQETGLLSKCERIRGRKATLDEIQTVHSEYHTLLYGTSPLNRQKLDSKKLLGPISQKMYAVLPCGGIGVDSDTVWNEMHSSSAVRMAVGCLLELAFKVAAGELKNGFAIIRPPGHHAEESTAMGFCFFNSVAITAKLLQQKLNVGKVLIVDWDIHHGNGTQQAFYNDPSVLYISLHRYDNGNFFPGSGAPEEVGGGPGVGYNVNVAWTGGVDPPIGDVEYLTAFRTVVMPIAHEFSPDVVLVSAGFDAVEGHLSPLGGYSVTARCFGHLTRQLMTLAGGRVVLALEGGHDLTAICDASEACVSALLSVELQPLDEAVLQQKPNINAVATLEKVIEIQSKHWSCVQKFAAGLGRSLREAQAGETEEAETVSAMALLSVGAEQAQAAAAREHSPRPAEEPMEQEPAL

HDAC9 = HDAC9 (Homo sapiens, UniProt Q9UKV0); test: as above
HDAC9, sequence (Q9UKV0 whole entry): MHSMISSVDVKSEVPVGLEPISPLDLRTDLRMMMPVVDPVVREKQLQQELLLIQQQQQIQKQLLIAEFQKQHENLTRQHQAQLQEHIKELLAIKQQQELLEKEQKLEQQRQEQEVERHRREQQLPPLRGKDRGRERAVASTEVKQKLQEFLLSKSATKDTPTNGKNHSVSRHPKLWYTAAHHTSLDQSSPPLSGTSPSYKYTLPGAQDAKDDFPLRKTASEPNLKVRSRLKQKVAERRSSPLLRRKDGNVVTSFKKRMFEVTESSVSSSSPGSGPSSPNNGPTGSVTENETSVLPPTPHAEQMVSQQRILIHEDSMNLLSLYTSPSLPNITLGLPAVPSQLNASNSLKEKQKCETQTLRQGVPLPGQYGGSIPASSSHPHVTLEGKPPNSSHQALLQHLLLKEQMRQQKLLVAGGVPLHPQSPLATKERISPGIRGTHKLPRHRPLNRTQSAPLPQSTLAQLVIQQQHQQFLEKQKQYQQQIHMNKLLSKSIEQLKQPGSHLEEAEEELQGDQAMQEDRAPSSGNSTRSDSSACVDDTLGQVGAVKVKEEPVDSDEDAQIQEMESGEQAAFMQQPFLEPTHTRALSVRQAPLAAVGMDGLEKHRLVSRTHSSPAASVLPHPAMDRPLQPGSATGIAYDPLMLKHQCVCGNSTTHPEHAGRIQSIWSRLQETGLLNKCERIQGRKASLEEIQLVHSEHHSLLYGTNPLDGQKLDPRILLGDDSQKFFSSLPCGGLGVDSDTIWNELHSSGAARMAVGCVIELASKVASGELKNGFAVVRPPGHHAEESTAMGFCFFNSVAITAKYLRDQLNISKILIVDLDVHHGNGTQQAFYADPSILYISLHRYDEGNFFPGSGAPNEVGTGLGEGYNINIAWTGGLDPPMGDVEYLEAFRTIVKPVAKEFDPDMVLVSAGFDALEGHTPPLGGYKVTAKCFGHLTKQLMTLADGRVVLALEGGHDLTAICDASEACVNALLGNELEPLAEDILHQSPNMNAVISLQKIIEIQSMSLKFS

[10] = system: transcripts in whole brain; details: chronic lithium, ref McQuillin et al, 2007; cited from earlier work
C57BL/6 mice [11] = details: 85 mg/kg i.p.; cited from earlier work
[12] = chronic i.p., day 10, Cpd-60 45 mg/kg, SAHA 25 mg/kg, vs vehicle

SMILES: CC(=O)Nc1ccc(C(=O)Nc2cc(-c3cccs3)ccc2N)cc1 [Cpd-60]
binding to 80 CNS targets [1]: no significant binding to any of the targets
concentration at 8 hr ([2]; C57BL/6, mouse, brain, intraperitoneal, 45 mg/kg, systemic treatment, read-out: brain concentration maintained for at least 8 hr): > 100 nM
Cmax ([2]; C57BL/6, mouse, brain, ip, 45 mg/kg, read-out: brain maximum concentration (Cmax)): 830 nM
half-life ([2]; C57BL/6, mouse, brain, ip): 6.44 h
time to peak brain concentration ([2]; systemic treatment): ≤ 5 min
H4K12ac levels after washout [3]: persistent increases in H4K12ac
H4K12ac levels, constant exposure [3]: elevated H4K12ac levels
IC50 (HDAC7): > 30 µM
H4K12ac levels downstream of the TSS [4]: lower than vehicle-treated controls
reduction in immobility time (C57BL/6 mice [5]; [12]): 67%
tolerability of treatment for longer than 10 days (mice): not well tolerated
brain uptake by PET [6]: reaches the brain, albeit at low levels relative to plasma
overlap with the 121 transcripts modulated by lithium [7]: 11
transcripts altered across the three regions [7]: 390
transcripts up- or down-regulated, summed across the three brain regions [7]: 1609
IC50 (HDAC8): > 30 µM
EC50 [8]: 7.2 µM
reduction of amphetamine-induced hyperlocomotion (C57BL/6 mice [9]): 36%
IC50 (HDAC4): > 30 µM
IC50 (HDAC5): > 30 µM
IC50 (HDAC9): > 30 µM

half-life ([2]; C57BL/6, mouse, brain, ip): 0.44 h
time until cleared from the brain ([2]; systemic treatment): ≤ 2 h
SMILES: O=C(CCCCCCC(=O)Nc1ccccc1)NO [SAHA, suberoylanilide hydroxamic acid]
H4K12ac levels after washout [3]: only Cpd-60-treated cells showed persistent increases in H4K12ac
H4K12ac levels, constant exposure [3]: elevated H4K12ac levels
reduction in immobility time (C57BL/6 mice [5]; [12]): did not influence mouse behavior in either paradigm
overlap with the 121 transcripts modulated by lithium [7]: no significant overlap
transcripts altered across the three regions [7]: 288
transcripts up- or down-regulated, summed across the three brain regions [7]: 1530
downregulated transcripts HIP (total) ([7]; ≥[…], post hoc p<0.05): 148
downregulated transcripts NAc (total) ([7]; ≥[…], post hoc p<0.05): 16
downregulated transcripts PFC (total) ([7]; ≥[…], post hoc p<0.05): 5
upregulated transcripts HIP (total) ([7]; ≥[…], post hoc p<0.05): 104
upregulated transcripts NAc (total) ([7]; ≥[…], post hoc p<0.05): 5
upregulated transcripts PFC (total) ([7]; ≥[…], post hoc p<0.05): 7
reduction of amphetamine-induced hyperlocomotion (C57BL/6 mice [9]): no effect

SMILES: CNCCCN1c2ccccc2CCc2ccccc21 [desipramine]
reduction in immobility time (C57BL/6 mice [5]; 15 mg/kg i.p., n = 16/group, data not shown): 55%

SMILES: [Li] [lithium]
Agxt2l1 fold change [10]: 2.73 fold change
Igfbp5 fold change [10]: -1.56 fold change
Mef2c fold change [10]: -1.22 fold change
Mfsd2 fold change [10]: 2.65 fold change
Nrxn1 fold change [10]: -1.18 fold change
Per2 fold change [10]: 2.47 fold change
Qdpr fold change [10]: -1.46 fold change
Sgk1 fold change [10]: 2.85 fold change
Sult1a1 fold change [10]: 6.28 fold change
Tsc22d3 fold change [10]: 1.95 fold change
Usp54 fold change [10]: 1.57 fold change
reduction in immobility time (C57BL/6 mice [11]): 48%
